Data reported in patent US8257700B2, “Proteomic analysis of active multiple sclerosis lesions” (The Board of Trustees of the Leland Stanford Junior …, priority 2008, dated 2012).

Key:
rheumatoid arthritis = conditions: cited from earlier work
[1] = system: MS relapses and active EAE; conditions: during MS relapses and active EAE; cited from earlier work
PAR-1 = molecular target: T1, PAR-1 (Homo sapiens, UniProt P25116); conditions: cited from earlier work
T1 sequence (P25116 22-425): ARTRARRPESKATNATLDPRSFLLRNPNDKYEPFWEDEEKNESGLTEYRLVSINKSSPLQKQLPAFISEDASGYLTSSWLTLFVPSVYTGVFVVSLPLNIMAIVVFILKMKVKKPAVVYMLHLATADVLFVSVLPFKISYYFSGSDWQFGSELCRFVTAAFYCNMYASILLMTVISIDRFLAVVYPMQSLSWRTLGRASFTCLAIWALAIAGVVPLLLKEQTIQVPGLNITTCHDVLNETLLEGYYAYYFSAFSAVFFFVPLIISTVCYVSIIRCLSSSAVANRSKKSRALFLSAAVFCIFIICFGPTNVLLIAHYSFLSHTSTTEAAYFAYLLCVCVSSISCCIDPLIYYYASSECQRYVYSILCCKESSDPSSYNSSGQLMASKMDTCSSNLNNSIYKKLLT

aPTT = conditions: cited from earlier work; for aPTT (relative activity): relative to aPC-WT
EAE mice = test: EAE induced with PLP139-151 in SJL/J mice, daily clinical score; assay type: in vivo, mouse (SJL/J); conditions: for clinical status (mean clinical score), time of amelioration: recombinant human aPC variants 0.46 mg/kg daily i.v. from maximal paralysis until day 30, vs PBS
Experimental: EAE induction, treatment with hirudin, aPC (WT and mutants), proliferation assays, cytokine analysis and quantitative histopathology. Mice were maintained in the Research Animal Facility at Stanford University. EAE was induced in 7-8 week old SJL/J female mice by subcutaneous immunization with 100 μg PLP139-151 in emulsion. For hirudin or aPC treatment, EAE mice (n=10/group) were treated with daily intravenous injection of hirudin (10 mg/kg) or mouse recombinant aPC-WT (0.2 mg/kg) at the peak of disease and compared with PBS treated group. Mice were assessed daily for clinical signs of EAE and scored according to: 0, no clinical disease; 1, tail weakness; 2, hindlimb weakness; 3, complete hindlimb paralysis; 4, hindlimb paralysis and some forelimb weakness; 5, moribund or dead.
Recombinant human aPC-WT and mutants (aPC-L8W and aPC-K193E) were prepared as described by Grinnell et al (2007) Critical Care Medicine (suppl). These aPC variants have the following properties on aPTT and PAR-1 signaling function: aPC-WT: aPTT (relative activity)=1, PAR-1 (relative activity)=1, aPC-L8W: aPTT=1, PAR-1=0.02 and aPC-K193E: aPTT=0.03, PAR-1=1. EAE mice (n=7/group) were treated with daily intravenous injection of recombinant human aPC-WT, aPC-L8W, aPC-K193E (0.46 mg/kg) or PBS (control group) at the time of maximal paralysis and assessed daily until day 30.

[2] = system: splenocytes and lymph node cells; test: In vitro proliferation (3H-thymidine) of splenocytes and lymph node cells from treated EAE mice, activated with PLP peptide; assay type: cell-based, mouse (SJL/J)
Experimental: (§1) In vitro immune cell proliferation and cytokine analysis were performed as previously described (Ousman et al. (2007) Nature 448, 474-9). Briefly, splenocytes and lymph node cells harvested from EAE experiments were cultured in flat-bottomed, 96-well plates at a concentration of 0.5×10^6 cells/well in stimulation media (RPMI 1640 supplemented with 2 mM L-glutamine, 1 mM sodium pyruvate, 0.1 mM non-essential amino acids, 100 U/ml^2 Penicillin, 0.1 mg/ml^2 streptomycin, 0.5 μM 2-mercaptoethanol and 10% fetal calf serum) and activated with PLP139-151 peptide (5-20 μg/ml). To determine proliferation rates, cultures were pulsed with (^3H)-Thymidine (1 μCi per well) following 72-hour culture and harvested 18 hours later onto filter paper. The counts per minute (cpm) of incorporated ^3H-Thymidine were read using a beta counter. Cytokine levels (IL-2, IL-4, IL-6, IL-10, IL-12p40, IL-17, IFN-γ, TNF) were measured from the supernatant of cultured cells using anti-mouse OPTEIA ELISA kits (BD Pharmigen).

[3] = system: brain and spinal cord of EAE mice; test: Quantitative histopathology: inflammatory foci in brain and spinal cord of EAE mice; assay type: in vivo, mouse (SJL/J)
Experimental: For histopathological analysis, brains and spinal cord of EAE mice were fixed in 10% formaldehyde. […] paraffin sections were stained with LFB and H&E and the number of inflammatory foci within the brain and spinal cord were quantified by a neuropathologist who was blinded to the treatment and clinical parameters of the mice.

NF-κB signalling (IκB-α) = test: Western blot of IκB-α in T cells (NF-κB activation); assay type: cell-based, mouse (SJL/J); conditions: T cells treated with murine aPC, cell activation assay
Experimental: Western blot analysis. For NF-κB activation, total cell lysate from purified T cells treated with aPC were analyzed by SDS-PAGE, transferred to PVDF membrane, probed with antibodies against IκB-α, and β-actin and the signal was visualized by enhanced chemiluminescence.

[4] = system: splenocytes and lymph node cells; test: Cytokine production (ELISA) of splenocytes and lymph node cells from treated EAE mice; assay type: cell-based, mouse (SJL/J)
Experimental: as §1

purified T cells = test: Purified T cell activation with CD3/CD28, cytokine ELISA; assay type: cell-based, mouse (SJL/J); conditions: 30 nM recombinant murine aPC pre-treatment, CD3/CD28 5 μg/ml
Experimental: In vitro Immune cell activation assays and cytokine analysis. T lymphocytes were isolated from pooled splenocytes and lymph node cells from 8 week-old naïve SJL/J mice by negative selection (Pan T cell isolation kit, Miltenyi Biotech). Cells were pre-treated with 30 nM recombinant murine aPC for 15 mins at 37° C. followed by activation with CD3/CD28 (5 μg/ml) coated on 12 well plates. Cells were cultured at 5×10^6 cells/ml concentration in stimulation media. Culture plates were harvested at different time points (15 min-96 hours) and cytokine levels were measured from culture supernatant by ELISA.

primary astrocytes = test: Primary astrocyte activation with LPS, cytokine ELISA; assay type: cell-based, mouse (SJL/J); conditions: 30 nM recombinant murine aPC pre-treatment, LPS 100 ng/ml
Experimental: Astrocyte culture. Astrocytes were cultured from brain of one-day-old SJL/J pups as described previously. Briefly, the cerebral cortices from pups were minced, cells were disrupted by passing through a filter and cultured in complete DMEM. Purified astrocytes (50-80% confluent) were treated with 30 nM recombinant murine aPC for 15 minutes and activated with 100 ng/ml LPS (Sigma). Cells were harvested at 4, 24, 48 and 72-hours, and supernatant were analyzed by ELISA for cytokine production.

[5] = system: primary peritoneal macrophages; test: Peritoneal macrophage activation with LPS, cytokine ELISA; assay type: cell-based, mouse (SJL/J); conditions: 30 nM recombinant murine aPC pre-treatment, LPS 100 ng/ml
Experimental: Primary peritoneal macrophages were isolated from naïve 8-9 weeks old SJL/J mice following intraperitoneal injection of thioglycollate (BD Diagnostic Systems) and cultured in complete medium (DMEM supplemented with 10% fetal bovine serum, 1 mM sodium pyruvate, […] and 0.1 mg/ml streptomycin). Cells (1×10^6 cells/ml) were treated with 30 nM recombinant murine aPC for 15 minutes, then activated with LPS 100 ng/ml (Sigma), harvested at different time points (15 min-72 hours), and cytokine levels were measured.

[6] = Anti-hirudin antibodies in serum of treated EAE mice; assay type: in vivo, mouse; conditions: EAE mice treated with hirudin
[7] = cells from aPC-treated vs PBS-treated mice
[8] = cells from hirudin-treated vs vehicle-treated mice
[9] = hirudin 10 mg/kg daily i.v. from peak of disease

For `CN(Cc1cnc2nc(N)nc(N)c2n1)c1ccc(C(=O)N[C@@H](CCC(=O)O)C(=O)O)cc1` [MTX, Methotrexate], the “patients having some response” value (rheumatoid arthritis) is listed as 70% and the onset of action (rheumatoid arthritis; patients) is listed as 4-6 weeks.
For Heparin, the symptoms [1] is listed as “improve symptoms”.
For “aPC-K193E: recombinant human aPC mutant; mainly participates in PAR-1 signalling and lacks anticoagulant activities”, the “PAR-1 signalling (in words)” value (PAR-1) is listed as “mainly participates in PAR-1 signalling”, the “anticoagulant properties (in words)” value (aPTT) is listed as “lacks anticoagulant activities” and the “aPTT (relative activity)” value (aPTT) is listed as 0.03. The “clinical status (mean clinical score), time of amelioration” value (shortened to “clinical status (mean clinical score)”) (EAE mice) was “significant amelioration early in the disease course (days 20-25)”.
For “aPC-L8W: recombinant human aPC mutant; retains anticoagulant properties but lacks PAR-1 signalling, defective EPCR interaction at L8”, the “PAR-1 signalling (in words)” value (PAR-1) is given as “lacks PAR-1 signalling”, the “anticoagulant properties (in words)” value (aPTT) is given as “retains anticoagulant properties” and the “aPTT (relative activity)” value (aPTT) is given as 1. The “clinical status (mean clinical score)” value (EAE mice) was “significant amelioration early in the disease course (days 20-25)”.
For “aPC-WT: recombinant human activated protein C wild type”, the “clinical status (mean clinical score)” value (EAE mice) was “improvement in the latter part of disease course (days 25-30)”.
For “aPC: recombinant murine activated protein C, provided by Lilly Research Laboratories”, the “immune cell proliferation in splenocytes and lymph node cells” value [2, 7] was “decreased immune cell proliferation”, the “inflammatory foci in the CNS tissue” value ([3]; aPC-treated vs PBS) was “fewer inflammatory foci” and the IκB breakdown (NF-κB signalling (IκB-α)) was “less IκB breakdown”. The “Th1 and Th17 cytokines” value [4, 7] was “inhibition”, the IL17 levels (purified T cells) was “low levels” and the IL6 production (primary astrocytes) was “less”. For the same compound, the IL17 production (primary astrocytes) was “less”, the relapse rates (EAE mice; recombinant murine aPC 0.2 mg/kg) was “no effect” and the “disease severity (mean clinical score)” value (EAE mice; recombinant murine aPC 0.2 mg/kg daily i.v. from peak of disease vs PBS) was “significant amelioration of disease severity”. For the same compound, the IL6 production [5] was “less” and the IL17 production [5] was “less”.
For “hirudin: thrombin inhibitor hirudin (Refludan, recombinant lepirudin, Berlex)”, the immune cell proliferation ([2]; cells from hirudin-treated vs PBS-treated mice, PLP activated) was “decreased immune cell proliferation”, the “inflammatory foci in brains and spinal cords” value ([3]; hirudin-treated vs PBS) was “fewer inflammatory foci” and the “anti-hirudin antibodies in serum” value [6] was “presence of anti-hirudin antibodies”. For the same compound, the IL4 production [4, 8] was “no differences”, the IL-6 production [4, 8] was “suppression” and the IL-10 production [4, 8] was “no differences”. For the same compound, the IL-12 production [4, 8] was “no differences”, the IL-17 production [4, 8] was “suppression” and the “interferon-γ (IFN-γ) production” value [4, 8] was “no differences”. For the same compound, the “tumor necrosis factor (TNF) production” value [4, 8] was “suppression”, the disease course (EAE mice; [9]) was “no effect” and the relapse rates (EAE mice; [9]) was “no effect”. For the same compound, the “disease severity (mean clinical score)” value (EAE mice; hirudin 10 mg/kg daily i.v. from peak of disease vs PBS) was “dramatic improvement of disease severity” and the “time up to which amelioration of EAE was observed” value (EAE mice; hirudin treatment) was at most 35 days.
